According to patent US6288091A, “Antiherpes virus compounds and methods for their preparation and use” (Boehringer Ingelheim Ltd., priority 1999, dated 2001):

Legend:
HSV-1 helicase-primase = target: T1, HSV-1 helicase-primase (Human herpesvirus 1, UniProt P10189+P10236); assay: HSV-1 DNA-dependent ATPase assay (inhibition of HSV-1 helicase-primase); type: biochemical
T1 construct: made in house; host or cells: Sf21 insect cells triply infected with recombinant baculoviruses (UL5, UL8, UL52)
Method in brief: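 Holoenzyme (UL5/UL8/UL52) expressed in baculovirus-infected Sf21 cells and purified, used at 3 μg/mL with 4 mM ATP and 25 μM primed M13 ssDNA in HEPES pH 7.5, 5.5 mM MgCl2, 3.3% DMSO. Incubated 20 min at 34°. Released phosphate read by malachite green at 650 nm, and activity taken from net absorbance with versus without inhibitor.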

HSV-1 strain F or KOS = assay: Inhibition of herpes simplex virus (HSV-1) replication in cell culture (BHK-21 cells, glycoprotein C ELISA); type: cell-based
Method in brief: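 BHK-21 clone 13 cells infected with HSV-1 F or KOS at MOI 0.05 PFU/cell for 1 h at 37°, washed, then treated with compound in α-MEM/2% FBS for 24 h. Late glycoprotein C quantified by ELISA (mAb C11, HRP/OPD, 450 nm); EC50 from % inhibition.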

HCMV (strain AD169) [1] = assay: Inhibition of HCMV replication, ELISA assay (Hs-68 cells); type: cell-based, Human Cytomegalovirus (HCMV); settings: read-out: ELISA CMV EC50
Method: (§1) C) Inhibition of Human Cytomegalovirus (HCMV) Replication
(§2) The effect of compounds on the replication of HCMV has been measured by using an ELISA-based assay (ELISA) and a plaque reduction assay (PRA).
Hs-68 cells (ATCC # CRL 1635) were seeded in 96 well microtiter plates at 10,000 cells/well in 100 μL of DMEM medium (Gibco Canada Inc.) supplemented with 10% fetal bovine serum (FBS, Gibco Canada Inc.). The plates were incubated for 3 days at 37° to allow the cells to reach 80-90% confluency prior to the assay.
The medium was removed from wells by aspiration. The cells then were infected at a multiplicity of infection (MOI) of 0.01 PFU/cell with 50 μL of HCMV (strain AD169, ATCC VR-538) in DMEM medium supplemented with 5% heat inactivated FBS (assay medium). The virus was allowed to adsorb to cells for 2 h at 37°. Following viral adsorption, the medium was removed from the wells by aspiration. The cells were washed twice with 200 μL of assay medium to remove unabsorbed virus. The cells were then incubated with or without 100 μL of appropriate concentrations of test reagent in assay medium. After 8 days of incubation at 37°, the extent of viral replication was determined by an ELISA assay which detects the late structural protein p28 of HCMV.
Eight days after infection, the medium was aspirated from the wells. Non-specific binding sites were blocked by adding 200 μL of phosphate buffered saline containing 1% (w/v) bovine serum albumin (blocking buffer) to each well and incubating the plates for 30 min at room temperature. After removal of the blocking buffer by aspiration, the cells were fixed with 100 μL of cold ethanol-acetone solution (95:5) per well. The plates were placed at -20° for 30 min. The plates were washed 4 times with phosphate buffered saline containing 0.05% (v/v) polyoxyethylene sorbitan monolaurate (Tween®). Thereafter, 100 μL of mAb UL99 (Advanced Biotechnologies Inc., #13-130-100) recognizing HCMV protein p28 was added to each wells and plates were incubated for 2 h at room temperature. The plates were washed four times with 200 μL of the above-noted phosphate buffered saline/Tween-20® solution. The cells were then incubated with 100 μL of sheep anti-mouse IgGγ horseradish peroxidase conjugated for 2 h at room temperature. The plates were then washed four times with 200 μL of above-noted phosphate buffered saline/Tween-20® solution. Thereafter, 100 μL of ortho phenylenediamine dihydrochloride (OPD, Gibco Canada Inc.) solution was added to each well and the plates were agitated on a microplate shaker for 30 min in the dark. Color development was monitored at 450 nm using a microplate spectrophotometer.
The SAS program was used to calculate the % inhibition of viral replication and to generate EC50 values.
The EC50 values obtained according to this assay method for certain thiazolylphenyl derivatives of this invention are listed in the following tables under the heading ELISA CMV.

[2] = Inhibition of HCMV replication, plaque reduction assay (PRA, Hs-68 cells); type: cell-based, Human Cytomegalovirus (HCMV); settings: human, Group 2 Table 1 entries, read-out: Cytotoxic at this concentration (footnote *, PRA CMV)
Method: as §1, §2
(§3) Hs-68 cells (ATCC # CRL 1635) were seeded in 12-well plates at 83,000 cells/well in 1 mL of DMEM medium (Gibco Canada Inc.) supplemented with 10% fetal bovine serum (FBS, Gibco Canada Inc.). The plates were incubated for 3 days at 37° to allow the cells to reach 80-90% confluency prior to the assay.
(§4) The medium was removed from the cells by aspiration. The cells were then infected with approximately 50 PFU of HCMV (strain AD169, ATCC VR-538) in DMEM medium supplemented with 5% inactivated FBS (assay medium). The virus was allowed to adsorb to cells for 2 h at 37°. Following viral adsorption, the medium was removed from the wells by aspiration. The cells were then incubated with or without 1 mL of appropriate concentrations of test reagent in assay medium. After 4 days of incubation at 37°, the medium was exchanged with fresh medium containing test compound and 4 days later the cells were fixed with 1% aqueous formaldehyde and stained with a 2% crystal violet solution in 20% ethanol in water. Microscopic plaques were counted using a stereomicroscope. Drug effects were calculated as a percent reduction in the number of plaques in the presence of each drug concentration compared to the number observed in the absence of drug. Ganciclovir was used as a positive control in all experiments.
(§5) The EC50 values obtained according to this assay for certain thiazolyl derivatives of this invention are listed in the following tables under the heading PRA CMV.

HCMV (strain AD169) [3] = assay: as above; type: cell-based, Human Cytomegalovirus (HCMV); settings: read-out: PRA CMV EC50
Method: as §1, §2, §3, §4, §5

[4] = Human alphaherpesvirus 1, BHK-21, Group 1 Table 1 entries
[5] = Human betaherpesvirus 5, AD169, Hs68, Group 1 Table 1 entries
[6] = Human alphaherpesvirus 1, BHK-21, Group 1 Table 5 entries
[7] = Human betaherpesvirus 5, AD169, Hs68, Group 1 Table 5 entries
[8] = Human alphaherpesvirus 1, BHK-21, Group 1 Table 3 entries
[9] = Human betaherpesvirus 5, AD169, Hs68, Group 1 Table 3 entries
[10] = Human betaherpesvirus 5, AD169, Hs68, Group 2 Table 1 entries
[11] = Human betaherpesvirus 5, AD169, Hs68, Group 1 Table 2 entries

T1 sequence (P10192 whole entry): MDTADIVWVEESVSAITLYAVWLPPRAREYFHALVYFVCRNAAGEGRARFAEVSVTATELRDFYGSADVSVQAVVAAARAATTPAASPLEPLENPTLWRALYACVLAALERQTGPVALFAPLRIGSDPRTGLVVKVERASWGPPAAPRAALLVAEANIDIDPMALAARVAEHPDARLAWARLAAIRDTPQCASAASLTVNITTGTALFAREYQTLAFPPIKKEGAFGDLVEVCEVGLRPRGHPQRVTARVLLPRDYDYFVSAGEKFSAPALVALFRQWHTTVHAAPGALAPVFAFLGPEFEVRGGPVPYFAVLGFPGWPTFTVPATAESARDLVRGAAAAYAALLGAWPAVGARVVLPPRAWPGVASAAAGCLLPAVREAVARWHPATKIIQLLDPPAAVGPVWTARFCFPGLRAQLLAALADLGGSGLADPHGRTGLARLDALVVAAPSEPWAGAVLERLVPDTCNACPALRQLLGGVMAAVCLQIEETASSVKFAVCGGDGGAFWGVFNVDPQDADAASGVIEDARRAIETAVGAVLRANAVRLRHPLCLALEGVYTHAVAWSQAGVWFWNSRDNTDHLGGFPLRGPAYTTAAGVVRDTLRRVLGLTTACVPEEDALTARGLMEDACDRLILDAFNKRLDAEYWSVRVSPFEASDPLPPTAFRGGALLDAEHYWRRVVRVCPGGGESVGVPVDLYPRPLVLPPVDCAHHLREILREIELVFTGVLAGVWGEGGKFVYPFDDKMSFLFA
T1 sequence (P10236 whole entry): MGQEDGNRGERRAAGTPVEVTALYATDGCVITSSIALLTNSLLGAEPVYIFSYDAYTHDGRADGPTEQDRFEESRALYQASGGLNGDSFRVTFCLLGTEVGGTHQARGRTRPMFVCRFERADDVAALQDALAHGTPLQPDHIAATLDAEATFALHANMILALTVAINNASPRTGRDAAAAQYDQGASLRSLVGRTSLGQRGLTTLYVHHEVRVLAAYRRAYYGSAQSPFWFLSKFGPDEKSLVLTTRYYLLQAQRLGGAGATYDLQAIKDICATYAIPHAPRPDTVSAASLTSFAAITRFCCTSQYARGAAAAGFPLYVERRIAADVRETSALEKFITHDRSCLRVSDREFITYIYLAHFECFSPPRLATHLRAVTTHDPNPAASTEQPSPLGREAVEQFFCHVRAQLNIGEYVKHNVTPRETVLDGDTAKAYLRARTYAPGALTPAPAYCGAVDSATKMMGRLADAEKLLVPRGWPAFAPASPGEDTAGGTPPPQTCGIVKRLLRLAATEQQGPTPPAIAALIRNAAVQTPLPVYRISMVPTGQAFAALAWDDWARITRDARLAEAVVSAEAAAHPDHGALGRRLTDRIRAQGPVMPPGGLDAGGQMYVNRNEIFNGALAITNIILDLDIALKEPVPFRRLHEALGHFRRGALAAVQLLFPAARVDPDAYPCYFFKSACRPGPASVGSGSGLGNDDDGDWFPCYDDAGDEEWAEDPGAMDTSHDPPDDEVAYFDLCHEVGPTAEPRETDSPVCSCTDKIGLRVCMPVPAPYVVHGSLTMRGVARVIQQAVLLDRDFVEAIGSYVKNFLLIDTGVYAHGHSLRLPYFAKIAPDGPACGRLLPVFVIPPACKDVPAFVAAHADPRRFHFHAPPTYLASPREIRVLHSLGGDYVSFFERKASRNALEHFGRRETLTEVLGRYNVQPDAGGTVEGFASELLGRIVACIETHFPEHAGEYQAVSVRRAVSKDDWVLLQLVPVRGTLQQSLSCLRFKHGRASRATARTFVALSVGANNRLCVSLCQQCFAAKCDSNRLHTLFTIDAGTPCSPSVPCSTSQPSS
T1 sequence (P10189 whole entry): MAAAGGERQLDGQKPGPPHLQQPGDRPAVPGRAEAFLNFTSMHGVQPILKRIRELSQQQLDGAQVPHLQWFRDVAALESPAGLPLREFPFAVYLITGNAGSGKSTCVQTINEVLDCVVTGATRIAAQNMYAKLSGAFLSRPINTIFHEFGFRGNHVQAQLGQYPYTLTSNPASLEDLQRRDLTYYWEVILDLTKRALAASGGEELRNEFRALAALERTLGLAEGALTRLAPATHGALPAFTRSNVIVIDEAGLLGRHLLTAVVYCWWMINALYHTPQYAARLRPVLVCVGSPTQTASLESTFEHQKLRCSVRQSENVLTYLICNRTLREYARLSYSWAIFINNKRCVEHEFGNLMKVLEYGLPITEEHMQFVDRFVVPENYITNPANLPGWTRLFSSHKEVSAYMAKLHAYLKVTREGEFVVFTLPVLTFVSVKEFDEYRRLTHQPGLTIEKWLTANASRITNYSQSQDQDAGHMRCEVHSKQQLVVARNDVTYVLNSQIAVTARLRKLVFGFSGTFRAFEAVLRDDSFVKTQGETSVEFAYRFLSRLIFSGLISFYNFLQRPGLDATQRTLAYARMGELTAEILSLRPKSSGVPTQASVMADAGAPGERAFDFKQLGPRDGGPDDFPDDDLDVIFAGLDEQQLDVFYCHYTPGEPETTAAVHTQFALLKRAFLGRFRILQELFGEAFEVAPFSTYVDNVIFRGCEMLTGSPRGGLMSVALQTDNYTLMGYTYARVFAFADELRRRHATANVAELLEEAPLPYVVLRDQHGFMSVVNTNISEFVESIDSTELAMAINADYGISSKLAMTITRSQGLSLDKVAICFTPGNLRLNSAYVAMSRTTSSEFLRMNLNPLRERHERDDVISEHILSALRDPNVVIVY

With `Nc1nc(-c2ccc(NC(=O)CN(CCC3CCCCC3)C(=O)C3CCCCC3)cc2)cs1` [Example 103] the IC50 (HSV-1 helicase-primase; Group 1 Table 1 entries) was 0.15 µM, the EC50 (HSV-1 strain F or KOS; [4]) was 0.24 µM and the EC50 (HCMV (strain AD169) [1]; [5]) was > 41 µM.

`CC(C)(C)OC(=O)N[C@@H](CC1CCCCC1)C(=O)Nc1ccc(-c2csc(N)n2)cc1` [Example 24] gave an IC50 (HSV-1 helicase-primase; Group 1 Table 5 entries) of 0.017 µM, an EC50 (HSV-1 strain F or KOS; [6]) of 0.043 µM and an EC50 (HCMV (strain AD169) [1]; [7]) of 8.1 µM.

`CNc1nc(-c2ccc(NC(=O)CN(CC3CCCCC3)C(=O)c3cccnc3)cc2)cs1` [Example 9] showed an IC50 (HSV-1 helicase-primase; Group 1 Table 3 entries) of 10 µM, an EC50 (HSV-1 strain F or KOS; [8]) of 1.3 µM and an EC50 (HCMV (strain AD169) [1]; [9]) of 5 µM.

In the case of `Nc1nc(-c2ccc(NC(=O)NCCCn3ccnc3)cc2)cs1` [Example 10], the IC50 (HSV-1 helicase-primase; Group 2 Table 1 entries) is reported as 4.7 µM, the MCC at 192 h [2] is reported as 48 µM and the EC50 (HCMV (strain AD169) [3]; [10]) is reported as > 48 µM.

`CC1(C(=O)N(CC(=O)Nc2ccc(-c3csc(N)n3)cc2)Cc2ccccc2)CCCCC1` [Example 35] showed an IC50 (HSV-1 helicase-primase; Group 1 Table 1 entries) of 0.035 µM, an EC50 (HSV-1 strain F or KOS; [4]) of 0.006 µM and an EC50 (HCMV (strain AD169) [1]; [5]) of 8.1 µM.

In the case of `Nc1nc(-c2ccc(NC(=O)CCN(C(=O)c3cccnc3)C3CCc4ccccc43)cc2)cs1` (stereo not drawn) [Example 11], the EC50 (HSV-1 strain F or KOS; Human alphaherpesvirus 1, BHK-21, Group 1 Table 2 entries) is reported as 4 µM, the EC50 (HCMV (strain AD169) [1]; [11]) is reported as 15 µM and the EC50 (HCMV (strain AD169) [3]; [11]) is reported as 20 µM.

With `Nc1nc(-c2ccc(NC(=O)NCCc3ccc(F)cc3)cc2)cs1` [Example 24] the IC50 (HSV-1 helicase-primase; Group 2 Table 1 entries) was 30 µM, the MCC at 192 h [2] was 5 µM and the EC50 (HCMV (strain AD169) [3]; [10]) was > 5 µM.

Compound `C[C@@H](C(=O)Nc1ccc(-c2csc(N)n2)cc1)N(Cc1ccccc1)C(=O)C1CCCCC1` [Example 14] has an IC50 (HSV-1 helicase-primase; Group 1 Table 5 entries) of 0.11 µM, an EC50 (HSV-1 strain F or KOS; [6]) of 0.009 µM and an EC50 (HCMV (strain AD169) [1]; [7]) of 10 µM.

For `CNc1nc(-c2ccc(NC(=O)CN(Cc3ccccc3)C(=O)OC(C)(C)C)cc2)cs1` [Example 10], the IC50 (HSV-1 helicase-primase; Group 1 Table 3 entries) was 0.31 µM, the EC50 (HSV-1 strain F or KOS; [8]) was 0.008 µM and the EC50 (HCMV (strain AD169) [1]; [9]) was 1.1 µM.

For `COc1ccc(CN(CC(=O)Nc2ccc(-c3csc(N)n3)cc2)C(=O)C2CCCCC2)cc1` [Example 46], the IC50 (HSV-1 helicase-primase; Group 1 Table 1 entries) was 0.075 µM, the EC50 (HSV-1 strain F or KOS; [4]) was 0.094 µM and the EC50 (HCMV (strain AD169) [1]; [5]) was 8 µM.

With `Nc1nc(-c2ccc(NC(=O)[C@@H](Cc3ccccc3)NCc3ccccc3)cc2)cs1` [Example 7] the IC50 (HSV-1 helicase-primase; Group 1 Table 5 entries) was 6.6 µM, the EC50 (HSV-1 strain F or KOS; [6]) was 2.1 µM and the EC50 (HCMV (strain AD169) [1]; [7]) was < 9 µM.

Work on `Nc1nc(-c2ccc(NC(=O)CNCc3cccs3)cc2)cs1` [Example 13] yielded an IC50 (HSV-1 helicase-primase; Group 1 Table 1 entries) of 3.8 µM, an EC50 (HSV-1 strain F or KOS; [4]) of 3.7 µM and an EC50 (HCMV (strain AD169) [1]; [5]) of 8.3 µM.

For `CN(C)c1nc(-c2ccc(NC(=O)CNCc3ccccc3)cc2)cs1` [Example 12], the IC50 (HSV-1 helicase-primase; Group 1 Table 3 entries) was > 50 µM, the EC50 (HSV-1 strain F or KOS; [8]) was 21 µM and the EC50 (HCMV (strain AD169) [1]; [9]) was > 79 µM.

For `Nc1nc(-c2ccc(NC(=O)CN(Cc3ccccc3)C(=O)OCc3ccccc3)cc2)cs1` [Example 109], the IC50 (HSV-1 helicase-primase; Group 1 Table 1 entries) was 0.31 µM, the EC50 (HSV-1 strain F or KOS; [4]) was 0.2 µM and the EC50 (HCMV (strain AD169) [1]; [5]) was > 20 µM.

Work on `CC(C)(C)C(=O)N[C@@H](Cc1ccccc1)C(=O)Nc1ccc(-c2csc(N)n2)cc1` [Example 20] yielded an IC50 (HSV-1 helicase-primase; Group 1 Table 5 entries) of 1.3 µM, an EC50 (HSV-1 strain F or KOS; [6]) of 0.6 µM and an EC50 (HCMV (strain AD169) [1]; [7]) of 10 µM.

For `C[C@H](NC(=O)Nc1ccc(-c2csc(N)n2)cc1)c1ccccc1` [Example 26], the IC50 (HSV-1 helicase-primase; Group 2 Table 1 entries) was 0.59 µM, the MCC at 192 h [2] was 74 µM and the EC50 (HCMV (strain AD169) [3]; [10]) was > 74 µM.
